Here are results for two molecules from paper PMC6689897, “Drugging an undruggable pocket on KRAS” (Proceedings of the National Academy of Sciences of the …, 2019).

Where “and” joins values, the source holds several entries; their conditions need not be identical. Identical values can stand only once. Like-named read-outs stand apart in the source and are kept apart here.

Holding throughout (experiment): ITC
Common to all, as to format: binding

Assay [1] concerns the target GCP-NRASwt (Homo sapiens, UniProt P01111, C118S). Particulars: 25°C. On the procedure: (§1) 80 difference spectrum. Mixtures of four fragments (each at 250 µM) were incubated in 25
(§2) 82 a mixture of GCP-KRASG12D and GDP-KRASG12V (each 4 µM). Binders were identified
(§3) 83 by comparing pre-recorded reference spectra with the STD difference spectrum.
(§4) 84 Deconvolution and confirmation of primary FBS hits obtained from STD-NMR and
(§5) 85 MST was performed using 2D 1H/15N TROSY NMR experiments(2) collected on a
(§6) 86 Bruker Avance III 600 MHz spectrometer equipped with a 5 mm z-gradient TCI cryo-
(§7) 87 probe. Samples were prepared directly before data acquisition using a Tecan Freedom
(§8) 88 Evo pipetting system and delivered by a Bruker Sample Rail to the magnet. Each sample
(§9) 89 contained either 50 µM 15N labeled GDP-KRASG12D or GCP-KRASG12D in 25 mM Tris-
(§10) 90 d11, 100 mM NaCl, 2 mM MgCl2, 0.5 mM TCEP pH 7.4 and 8% (v/v) D2O. Proteins
(§11) 91 were incubated with 500 µM fragment in a 2.5 mm NMR tube at 298K and 1%
(§12) 92 d6DMSO. Spectra were recorded with 32 transients and 64 data points in the indirect
(§13) 93 dimension. Processing and analysis were accomplished with Topspin 3.0 (Bruker
(§14) 94 BioSpin). Binders were identified by manual comparison of spectra in the presence of a
(§15) 95 fragment and the respective reference spectrum. All confirmed binders to 15N labeled
(§16) 96 GDP-KRASG12D show also chemical shift perturbations in the presence of 15N labeled
(§17) 97 GDP-KRASG12V and are therefore non-selective.
(§18) 98 Measurement of dissociation constants KD for the compounds synthesized. NMR
(§19) 99 was initially the only method that could provide K Ds for the weakly binding molecules to
(§20) 100 support compound optimization. 1H/15N SoFast HMQC experiments(3) were recorded in
(§21) 101 3mm NMR tubes (170µL filling) at a protein concentration of 70-100µM. Spectra were
(§22) 102 recorded on a Avance III 700MHz spectrometer equipped with a cryogenically cooled
(§23) 103 5mm TCI probe and 48 scans, 128 f1 increments and 2k data points in f2. Total
(§24) 104 acquisition time was 22 minutes. 4 – 6 titration points were performed w ith individual
(§25) 105 samples for each titration point made from 50mM DMSO -d6 stock solutions. Total
(§26) 106 DMSO-d6 concentration was kept constant by backfilling every sample to a total of 4%
(§27) 107 DMSO. KDs were calculated from the differences in chemical shift induced by t he small
(§28) 108 molecules upon interacting with the protein. Average chemical shifts from the 1H and 15N
(§29) 109 dimension were calculated according to the following equation:
(§30) 110 ∆δobs = √[δH2 + (α ∙δN)2] with α set to 0.14
(§31) 111 The Δδobs values at the respective ligand concentrations and the total concentration
(§32) 112 of protein allow a fit to the KD value of the ligand as long as it is binding under fast
(§33) 113 exchange conditions as was the case for most of the compounds tested.(4) Usually Δδobs
(§34) 115 following equation was used to determine the individual KDs:
(§35) 116 ∆δobs = ∆δmax [([P]t + [L]t + KD) − [([P]t + [L]t + KD)2 − 4([P]t[L]t)]1/2]/2[P]t
(§36) 119 Calorimetric experiments were performed on a Microcal PEAQ-ITC calorimeter
(§37) 120 (MicroCalTM, LLC Northampton, MA). Protein solutions were measured in 20 mM
(§38) 121 HEPES, 150 mM NaCl, 3% DMSO, pH 7.5. All measurements were carried out at 25°C.
(§39) 122 Titrations were performed in inverse mode. The cell was loaded with compound solutions
(§40) 123 in the range of 10 to 100 µM. All injections were performed using an initial injection of
(§41) 124 0.5 μL followed by 19 injections of 2 μL of protein in the range of 130-500 µM. The data
(§42) 125 were analyzed with the MicroCal PEAQ-ITC analysis software package. The first data
(§43) 126 point was excluded from the analysis. Thermodynamic parameters were calculated (ΔG =
(§44) 127 ΔH - TΔS = -RTlnKB, where ΔG, ΔH and ΔS are the changes in free energy, enthalpy and
(§45) 128 entropy of binding, respectively).
(§46) 130 Protein purification, nucleotide exchange and crystallization
(§47) 131 The KRAS construct, based on uniprot identifier P01116 -2 (KRAS4-B) amino acids
(§48) 134 G12V) were expressed with an N-terminal His6-tag followed by a TEV (tobacco etch

Assay [2] concerns the target GDP-KRASwt (Homo sapiens, UniProt P01116). Particulars: 25°C. On the procedure: as §1, §2, §3, §4, §5, §6, §7, §8, §9, §10, §11, §12, §13, §14, §15, §16, §17, §18, §19, §20, §21, §22, §23, §24, §25, §26, §27, §28, §29, §30, §31, §32, §33, §34, §35, §36, §37, §38, §39, §40, §41, §42, §43, §44, §45, §46, §47, §48
Assay [3] has as its target GCP-KRASwt (Homo sapiens, UniProt P01116). Particulars: for Kd: 25°C. On the procedure: as §1, §2, §3, §4, §5, §6, §7, §8, §9, §10, §11, §12, §13, §14, §15, §16, §17, §18, §19, §20, §21, §22, §23, §24, §25, §26, §27, §28, §29, §30, §31, §32, §33, §34, §35, §36, §37, §38, §39, §40, §41, §42, §43, §44, §45, §46, §47, §48
Assay [4] deals with GDP-HRASwt (Homo sapiens, UniProt P01112). The note with it: 25°C. How it is done:
as §1, §2, §3, §4, §5, §6, §7, §8, §9, §10, §11, §12, §13, §14, §15, §16, §17, §18, §19, §20, §21, §22, §23, §24, §25, §26, §27, §28, §29, §30, §31, §32, §33, §34, §35, §36, §37, §38, §39, §40, §41, §42, §43, §44, §45, §46, §47, §48

The target in assay [5] is GCP-HRASwt (Homo sapiens, UniProt P01112). Particulars: 25°C. How it is done:
as §1, §2, §3, §4, §5, §6, §7, §8, §9, §10, §11, §12, §13, §14, §15, §16, §17, §18, §19, §20, §21, §22, §23, §24, §25, §26, §27, §28, §29, §30, §31, §32, §33, §34, §35, §36, §37, §38, §39, §40, §41, §42, §43, §44, §45, §46, §47, §48

Assay [6] deals with GCP-KRASG12D (Homo sapiens, UniProt P01116, G12D). How it is done: as §1, §2, §3, §4, §5, §6, §7, §8, §9, §10, §11, §12, §13, §14, §15, §16, §17, §18, §19, §20, §21, §22, §23, §24, §25, §26, §27, §28, §29, §30, §31, §32, §33, §34, §35, §36, §37, §38, §39, §40, §41, §42, §43, §44, §45, §46, §47, §48
GCP-KRASG12D, sequence (P01116 1-169 isoform P01116-2 G12D): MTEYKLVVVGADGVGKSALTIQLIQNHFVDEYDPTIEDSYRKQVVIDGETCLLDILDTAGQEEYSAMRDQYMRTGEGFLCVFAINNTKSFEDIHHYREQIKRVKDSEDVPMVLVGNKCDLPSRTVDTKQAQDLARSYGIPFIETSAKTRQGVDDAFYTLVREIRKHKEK
For assay [7], the target named is GDP-KRASG12D (Homo sapiens, UniProt P01116, G12D). The note with it: 25°C. On the procedure:
as §1, §2, §3, §4, §5, §6, §7, §8, §9, §10, §11, §12, §13, §14, §15, §16, §17, §18, §19, §20, §21, §22, §23, §24, §25, §26, §27, §28, §29, §30, §31, §32, §33, §34, §35, §36, §37, §38, §39, §40, §41, §42, §43, §44, §45, §46, §47, §48

In assay [8] the target is GDP-NRASwt (Homo sapiens, UniProt P01111, C118S). Particulars: for Kd: 25°C. How it is done: as §1, §2, §3, §4, §5, §6, §7, §8, §9, §10, §11, §12, §13, §14, §15, §16, §17, §18, §19, §20, §21, §22, §23, §24, §25, §26, §27, §28, §29, §30, §31, §32, §33, §34, §35, §36, §37, §38, §39, §40, §41, §42, §43, §44, §45, §46, §47, §48
GDP-NRASwt, sequence (P01111 1-172 C118S): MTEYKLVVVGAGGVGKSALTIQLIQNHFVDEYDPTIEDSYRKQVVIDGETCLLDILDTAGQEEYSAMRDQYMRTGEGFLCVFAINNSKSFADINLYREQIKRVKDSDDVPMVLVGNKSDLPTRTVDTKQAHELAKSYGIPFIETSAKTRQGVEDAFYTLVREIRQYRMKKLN
Setting [9] is: 25°C, read-out: KD(ITC) GCP-KRASG12D.

GCP-KRASwt, sequence (P01116 1-169 isoform P01116-2): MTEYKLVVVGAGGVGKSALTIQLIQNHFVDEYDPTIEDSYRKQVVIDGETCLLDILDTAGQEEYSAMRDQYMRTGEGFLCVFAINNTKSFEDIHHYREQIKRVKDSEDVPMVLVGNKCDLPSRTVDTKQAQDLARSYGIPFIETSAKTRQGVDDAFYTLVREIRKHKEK
GDP-KRASG12D, sequence (P01116 1-169 isoform P01116-2 G12D): as the sequence (P01116 1-169 isoform P01116-2 G12D) above
GCP-HRASwt, sequence (P01112 1-166): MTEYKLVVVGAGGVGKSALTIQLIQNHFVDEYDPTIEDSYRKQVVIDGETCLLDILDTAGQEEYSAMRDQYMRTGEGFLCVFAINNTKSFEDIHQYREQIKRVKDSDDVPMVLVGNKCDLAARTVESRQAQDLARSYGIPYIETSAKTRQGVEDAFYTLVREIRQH
GDP-HRASwt, sequence (P01112 1-166): as above
GCP-NRASwt, sequence (P01111 1-172 C118S): as the sequence (P01111 1-172 C118S) above
GDP-KRASwt, sequence (P01116 1-169 isoform P01116-2): as the sequence (P01116 1-169 isoform P01116-2) above

With `Cn1cnc(Cn2ccc3ccc(CNCc4[nH]c5ccccc5c4[C@H]4NC(=O)c5ccc(O)cc54)cc32)c1` [Compound 1], the dissociation constant (Kd) in assay [1] worked out at 1.3 µM; in assay [2], 1.1 µM; in assay [3] it was 7.5 µM; in assay [4], 2.5 µM; in assay [5] it was 0.57 µM; in assay [6] (setting [9]), 0.74 µM. In addition, the Kd in assay [6] (read-out: KD GTP-KRAS^G12D as measured by ITC) is 0.75 µM; in assay [7], 2 µM; in assay [8], 8.3 µM. In addition, in assay [3], the “selectivity of binding to GCP-KRAS^wt (active KRAS^wt)” value was 5- to 10 fold and 10 fold. The “selectivity window to inactive NRAS^wt” value in assay [8] is 5- to 10 fold.
Take `CN(C)Cc1[nH]c2ccccc2c1[C@H]1NC(=O)c2ccc(O)cc21` [Compound 18]: the Kd in assay [1] was 33 µM; in assay [2], 15 µM; in assay [3], 49 µM; in assay [4], 54 µM; in assay [5], 6.7 µM; in assay [6] (setting [9]), 22 µM and 20 µM and 20.4 µM. The dissociation constant (Kd) worked out at 29 µM in assay [7] and 33 µM in assay [8].

What is called Kd is the constant that tells how readily two partners part at equilibrium.
